Data reported in patent publication US20130029964A1, “[5, 6] HETEROCYCLIC COMPOUND” (DAIICHI SANKYO COMPANY, LIMITED, priority 2010, published 2013).
Where a name gives a salt, the structure may show the parent alone.

test system: ST2 cells, murine bone marrow-derived stromal cells; test: Osteoblast differentiation test (ALP activity); type: cell-based; settings: Mus musculus, ST-2, 96 h, at 0.1 μg/mL, control group (0.1% DMSO) = 100%, four days of culturing, read-out: alkaline phosphatase activity
Method: ST2 cells, murine bone marrow-derived stromal cells, (obtained from RIKEN) were used.
In this test, α-MEM media (obtained from GIBCO BRL Cat. No. 10370-021) containing 10% (v/v) of inactivated calf serum (obtained from Hyclone Laboratories, Inc.) and 1% (v/v) of Penicillin-Streptomycin Liquid (obtained from GIBCO BRL Cat. No. 15140-122) (hereinbelow, abbreviated as 10%-FBS-αMEM) were used. In this test, all culturing was performed in a CO2 incubator (37° C., 95% humidity, 5% CO2).
The aforementioned cells were detached with 2 mL of a 0.25% trypsin solution (obtained from GIBCO BRL Cat. No. 15050-065) and dispersed in 10 mL of 10%-FBS-αMEM. Subsequently, the cells were collected by centrifugation (25° C., 800 rpm, five minutes). Then, a cell suspension containing 40000 of the cells/mL of 10%-FBS-αMEM was prepared. The cell suspension was then dispensed into 96-well plates (the product of Falcon), 100 μL per well, at a density of 4000 cells/well, followed by culturing for 24 hours. To the wells, except for the below-described well containing a control group, the compound was dispensed at final concentrations of 0.01, 0.03, 0.1, and 0.3 μg/ml. To the well of a control group, DMSO was dispensed at a final concentration of 0.1% (v/v). After four days of culturing, the activity of alkaline phosphatase (ALP) was measured in each group.
The measurement of ALP activity was performed as follows. That is, the medium in each well of the culture plates was completely removed. Each well was then washed by dispensing 100 μL of Dulbecco's phosphate buffer (obtained from GIBCO BRL Cat. No. 14190-144) and then removing it. A cell lysate solution containing 10 mM MgCl2 and 2% (v/v) TritonX-100 (Sigma) was prepared and dispensed at 50 μL/well, followed by stirring at room temperature for five minutes. An ALP substrate solution containing 50 mM diethanolamine (Wako Pure Chemical Industries, Ltd., Cat. No. 099-03112) and 20 mM p-nitrophenyl phosphate (Wako Pure Chemical Industries, Ltd., Cat. No. 147-02343) was prepared and dispensed at 50 μL/well, and the plates were left to stand at room temperature for 10 minutes. Subsequently, absorbance was measured by a microplate reader (Bio-Rad Laboratories, Inc.). Setting the measurement value of the control group of each plate at 100%, alkaline phosphatase activity (increase (%)) in the test compound-addition group was calculated, which was assessed as the degree of osteoblast differentiation.

SMILES	activity at 0.1 µg/mL
CC(=O)N1CC=C(c2ccn3c(N4CCC(OCCO)CC4)cnc3c2)CC1 [Example 10, 2-({1-[7-(1-Acetyl-1,2,3,6-tetrahydropyridin-4-yl)imidazo[1,2-a]pyridin-3-yl]piperidin-4-yl}oxy)ethanol hydrochloride]	≥ 200%
COc1ccc2ncc(-c3ccc(NCCO)cc3)n2c1 [Example 123]	≥ 200%
C#Cc1ccc2ncc(-c3ccc(OCCOC4CCOCC4)cc3)n2c1 [Example 21, 6-Ethynyl-3-{4-[2-(tetrahydro-2H-pyran-4-yloxy)ethoxy]phenyl}imidazo[1,2-a]pyridine]	≥ 200%
OCCOc1ccc(-n2cnc3cc4c(cc32)OCCO4)cc1 [Example 35]	≥ 200%
OCCOc1ccc(-n2cnc3cc(-c4cccnc4)ccc32)cc1 [Example 42]	≥ 200%
c1cc(-c2ccc3c(c2)ncn3-c2ccc(OCCOC3CCOCC3)cc2)ccn1 [Example 44]	≥ 200%
COCCOCCOc1ccc(-c2cnc3ccc(F)cn23)cc1 [Example 81]	≥ 200%
CS(=O)(=O)N1CCN(c2ccc3c(c2)ncn3-c2ccc(OCCO)cc2)CC1 [Example 59]	≥ 200%
CC(=O)N1CC=C(c2ccn3c(N4CCC(OCCOC5CCOCC5)CC4)cnc3c2)CC1 [Example 77]	≥ 200%
c1cc(-c2ccc3ncc(-c4ccc(NCCOC5CCOCC5)cc4)n3c2)ccn1 [Example 142]	≥ 200%
OCCOc1ccc(-n2cnc3ccc(F)cc32)cc1 [Example 47]	≥ 200%
OCCOc1ccc(-n2cnc3cc(-c4cc[nH]c4)ccc32)cc1 [Example 57]	≥ 200%
OCCOc1ccc(-c2cnc3ccccn23)cc1 [Example 115]	≥ 200%
O=C(C1CC1)N1CCC(OCCOC2CCN(c3cnc4ccc(-c5ccncc5)cn34)CC2)CC1 [Example 140]	≥ 200%
CC(=O)N1CCN(c2ccc3c(c2)ncn3-c2ccc(OCCO)cc2)CC1 [Example 40]	≥ 200%
OCCNc1ccc(-c2cnc3ccc(Cl)cn23)cc1 [Example 118]	≥ 200%
N#Cc1ccc2ncn(-c3ccc(OCCOC4CCOCC4)cc3)c2c1 [Example 24, 1-{4-[2-(Tetrahydro-2H-pyran-4-yloxy)ethoxy]phenyl}-1H-benzimidazole-6-carbonitrile hydrochloride]	≥ 200%
COc1cc2ncn(-c3ccc(NCCO)cc3)c2cc1OC [Example 28]	≥ 200%
Clc1ccn2c(-c3ccc(OCCOC4CCOCC4)cc3)cnc2c1 [Example 78]	≥ 200%

SMILES	activity at 0.1 µg/mL
COc1ccn2c(-c3ccc(NCCO)cc3)cnc2c1 [Example 119]	≥ 200%
COc1ccc2c(-c3ccc(OCCO)cc3)cnn2c1 [Example 125]	≥ 200%
c1cn(-c2ccc3ncc(-c4ccc(OCCOC5CCOCC5)cc4)n3c2)cn1 [Example 112]	≥ 200%
COCCNc1ccc(-n2cnc3ccccc32)cc1 [Example 6]	≥ 200%
Cn1cc(-c2ccc3ncc(-c4ccc(NCCOC5CCOCC5)cc4)n3c2)cn1 [Example 136]	≥ 200%
OCCOc1ccc(-c2cnn3cc(-c4ccncc4)ccc23)cc1 [Example 11, 2-[4-(6-Pyridin-4-ylpyrazolo[1,5-a]pyridin-3-yl)phenoxy]ethanol]	≥ 200%
Fc1ccc2ncc(-c3ccc(OCCO[C@@H]4CCOC4)cc3)n2c1 [Example 110]	≥ 200%
NC(=O)c1ccc2ncc(-c3ccc(OCCOC4CCOCC4)cc3)n2c1 [Example 19, 3-{4-[2-(Tetrahydro-2H-pyran-4-yloxy)ethoxy]phenyl}imidazo[1,2-a]pyridine-6-carboxamide]	≥ 200%
O=C(C1CC1)N1CCC(OCCOC2CCN(c3cnc4ccc(Cl)cn34)CC2)CC1 [Example 138]	≥ 200%
CS(=O)(=O)N1CCC(OCCOc2ccc(-n3cnc4ccccc43)cc2)CC1 [Example 45]	≥ 200%
OCCOc1ccc(-c2cnc3ccc(-c4cc[nH]c4)cn23)cc1 [Example 8, 2-{4-[6-(1H-Pyrrol-3-yl)imidazo[1,2-a]pyridin-3-yl]phenoxy}ethanol]	≥ 200%
Cn1cc(-c2ccn3c(N4CCC(OCCO)CC4)cnc3c2)cn1 [Example 105]	≥ 200%
OCCOC1CCN(c2cnc3cc(-c4ccncc4)ccn23)CC1 [Example 76]	≥ 200%
Cn1cc(-c2ccc3c(c2)ncn3-c2ccc(OCCO)cc2)cn1 [Example 63]	≥ 200%
CC(C)(C)OC(=O)NCCOc1ccc(-n2cnc3ccccc32)cc1 [Example 99]	≥ 200%
Fc1ccc2ncc(-c3ccc(OCCOCCOC4CCOCC4)cc3)n2c1 [Example 82]	≥ 200%
Cn1cc(-c2ccn3c(N4CCC(OCCOC5CCOCC5)CC4)cnc3c2)cn1 [Example 104]	≥ 200%
Fc1ccc2ncc(-c3ccc(OCCOC4CCOCC4)cc3)n2c1 [Example 144]	≥ 200%
OCCOc1ccc(-n2cnc3cc(N4CCOCC4)ccc32)cc1 [Example 36]	≥ 200%

SMILES	activity at 0.1 µg/mL
OCCOc1ccc(-n2cnc3cc(-c4nccs4)ccc32)cc1 [Example 64]	≥ 200%
N#Cc1ccc2ncc(-c3ccc(OCCO)cc3)n2c1 [Example 69]	≥ 200%
Cc1ccc2ncc(-c3ccc(OCCOC4CCOCC4)cc3)n2c1 [Example 145]	≥ 200%
CS(=O)(=O)c1ccc(-c2ccc3c(c2)ncn3-c2ccc(OCCO)cc2)cn1 [Example 129]	≥ 200%
COc1ccc2c(c1)ncn2-c1ccc(NCCO)cc1 [Example 5, 2-{[4-(5-Methoxy-1H-benzimidazol-1-yl)phenyl]amino}ethanol hydrochloride]	≥ 200%
OCCNc1ccc(-c2cnn3ccccc23)cc1 [Example 122]	≥ 200%
N#Cc1ccc2ncn(-c3ccc(OCCOC4COCC4O)cc3)c2c1 (stereo not drawn) [Example 94]	≥ 200%
N#Cc1ccc2ncc(-c3ccc(OCCOC4COCC4O)cc3)n2c1 (stereo not drawn) [Example 91]	≥ 200%
OCCOc1ccc(-n2cnc3cc(-c4ccccn4)ccc32)cc1 [Example 128]	≥ 200%
Cn1ccc(-c2ccn3c(-c4ccc(OCCO)cc4)cnc3c2)c1 [Example 67]	≥ 200%
Fc1ccc2ncc(-c3ccc(OCCOC[C@H]4COCCO4)cc3)n2c1 [Example 87]	≥ 200%
COC1COCC1OCCOc1ccc(-c2cnc3ccc(C#N)cn23)cc1 (stereo not drawn) [Example 114]	≥ 200%
CS(=O)(=O)N1CC=C(c2ccc3c(c2)ncn3-c2ccc(OCCO)cc2)CC1 [Example 61]	≥ 200%
OCCOc1ccc(-n2cnc3cc(-c4ccncc4)ccc32)cc1 [Example 9, 2-[4-(5-Pyridin-4-yl-1H-benzimidazol-1-yl)phenoxy]ethanol]	≥ 200%
OCCOc1ccc(-c2cnc3cc(N4CCOCC4)ccn23)cc1 [Example 70]	≥ 200%
COc1ccn2ncc(-c3ccc(OCCO)cc3)c2c1 [Example 120]	≥ 200%
CN(C)C(=O)c1cccc(-c2ccn3c(-c4ccc(OCCO)cc4)cnc3c2)c1 [Example 106]	≥ 200%
OCCOc1ccc(-c2cnc3ccc(-c4ccncc4)cn23)cc1 [Example 71]	≥ 200%
Clc1ccc2ncc(-c3ccc(OCCOC4CCOCC4)cc3)n2c1 [Example 131]	≥ 200%
